Among the data in US6313095A, “Antiherpes tetrapeptide derivatives having a substituted aspartic acid side chain” (Boehringer Ingelheim (Canada), Ltd., priority 1989, dated 2001) are IC50 values, retold here.

This experiment concerns the target T1, HSV-1 ribonucleotide reductase (Human herpesvirus 1, UniProt P08543).
T1 construct: HSV-1 ribonucleotide reductase (partially purified) was obtained from quiescent BHK-21/C13 cells infected with strain F HSV-1 virus; endogenous in cells; host or cells: quiescent BHK-21/C13 (hamster) cells infected with HSV-1 strain F; partially purified enzyme preparation
As to the kind of experiment: Inhibition of Herpes Simplex Virus (HSV, Type 1) Ribonucleotide Reductase. Type of experiment: biochemical, herpes simplex virus type 1 (strain F). The note with it: mean of four assays. The source says: Inhibition of Herpes Simplex Virus (HSV, Type 1) Ribonucleotide Reductase
HSV-1 ribonucleotide reductase (partially purified) was obtained from quiescent BHK-21/C13 cells infected with strain F HSV-1 virus at 10 plaque forming units/cell as described by E. A. Cohen et al., J. Gen. Virol., 66, 733 (1985).
b) Assay and Results for Exemplified Peptides
By following the procedure described by P. Gaudreau et al., J. Biol, Chem., 262, 12413 (1987), the assay results listed in the following table were obtained. The assay result for each peptide is expressed as the concentration of the peptide producing 50% of the maximal inhibition (IC50) of enzyme activity. The number of units of the enzyme preparation used in each assay was constant, based on the specific activity of the enzyme preparation. The results are relative to the activity obtained in control experiments without peptide and represent the mean of four assays that varied less than 10% with each other.

[1] abbreviates: concentration producing 50% of the maximal inhibition of enzyme activity, partially purified enzyme.
[2] abbreviates: separated diastereoisomer, first eluted on HPLC (footnotes 1, 3).
Setting [3] is: separated diastereoisomer, second eluted on HPLC (footnotes 1, 3).

Where a SMILES comes first, the peptide text is derived from it. [ ]: non-standard residue; d: D form. The star is where a group is joined. ξ: configuration not given here. Gly(1-COOH-cBu) = N[C@H](C(=O)O)C1(C(=O)O)CCC1; cPrCO(2,2,3,3-Me4) = CC1(C)C(C(=O)*)C1(C)C; X1 = CC1CCC(C)C(C(=O)*)C1C(=O)OCCc1ccccc1; ξAsp(3,3-Me2) = CC(C)(C(=O)O)C(N)C(=O)O; X3 = O=C(CCc1ccccc1)C1CCCCC1C(=O)*; Pentanoyl(4-Me) = CC(C)CCC(=O)*; Butanoyl(2-Et) = CCC(CC)C(=O)*; O(2S-octyl) = CCCCCC[C@H](C)O*; Tle = CC(C)(C)[C@H](N)C(=O)O; Pyrrolidide = C1CCN(*)C1; X4 = CC1CCCC(C)C1C(=O)*; NEt2 = CCN(CC)*

T1 sequence (P08543 whole entry): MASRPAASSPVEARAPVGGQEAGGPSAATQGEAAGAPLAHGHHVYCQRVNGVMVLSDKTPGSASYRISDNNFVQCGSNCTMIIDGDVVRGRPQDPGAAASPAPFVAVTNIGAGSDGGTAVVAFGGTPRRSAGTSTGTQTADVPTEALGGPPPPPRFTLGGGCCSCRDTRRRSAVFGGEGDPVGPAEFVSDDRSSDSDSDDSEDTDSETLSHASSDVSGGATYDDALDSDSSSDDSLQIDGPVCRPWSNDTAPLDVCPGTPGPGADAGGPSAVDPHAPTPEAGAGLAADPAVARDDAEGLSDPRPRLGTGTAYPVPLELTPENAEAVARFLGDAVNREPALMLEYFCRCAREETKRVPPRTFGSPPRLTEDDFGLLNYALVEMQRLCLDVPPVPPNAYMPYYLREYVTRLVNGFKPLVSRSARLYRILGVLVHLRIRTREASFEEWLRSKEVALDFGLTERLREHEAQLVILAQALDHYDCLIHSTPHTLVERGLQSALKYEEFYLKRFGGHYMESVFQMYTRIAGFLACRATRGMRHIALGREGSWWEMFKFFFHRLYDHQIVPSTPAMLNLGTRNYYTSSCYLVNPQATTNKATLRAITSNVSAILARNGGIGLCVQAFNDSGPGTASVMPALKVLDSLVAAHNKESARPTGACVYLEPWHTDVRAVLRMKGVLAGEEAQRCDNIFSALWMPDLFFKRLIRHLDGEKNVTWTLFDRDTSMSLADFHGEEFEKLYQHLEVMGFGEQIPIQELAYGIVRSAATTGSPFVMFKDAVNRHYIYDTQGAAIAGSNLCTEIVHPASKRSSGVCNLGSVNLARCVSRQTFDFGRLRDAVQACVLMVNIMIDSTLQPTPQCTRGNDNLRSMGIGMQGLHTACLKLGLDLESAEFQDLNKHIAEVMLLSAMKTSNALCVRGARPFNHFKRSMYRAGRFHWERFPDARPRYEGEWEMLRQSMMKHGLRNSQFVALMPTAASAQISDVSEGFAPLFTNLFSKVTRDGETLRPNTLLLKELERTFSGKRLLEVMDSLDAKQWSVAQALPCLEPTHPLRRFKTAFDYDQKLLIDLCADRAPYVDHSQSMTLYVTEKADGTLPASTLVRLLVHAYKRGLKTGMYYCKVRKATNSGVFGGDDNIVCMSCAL

On to `CCCCCC[C@H](C)OC(=O)C[C@H](NC(=O)[C@@H](NC(=O)C(CC)CC)C(C)(C)C)C(=O)N[C@H](C(=O)N[C@@H](CC(C)C)C(=O)O)C1(C(=O)O)CCC1` [(C2 H5)2 CHCO-Tbg-Asp(1-methylheptyloxy)-Asp(cyBu)-Leu-OH] ({Butanoyl(2-Et)}-[Tle]D(O(2S-octyl))[Gly(1-COOH-cBu)]L-OH), for which the IC50 (usually the concentration that inhibits the measured activity by half) under setting [1] came to 500 nM.
Same read-out and setting: next, `CC[C@H](C)[C@H](NC(=O)C1C(C)CCCC1C)C(=O)N[C@@H](CC(=O)N1CCCC1)C(=O)N[C@@H](CC(=O)O)C(=O)N[C@@H](CC(C)C)C(=O)O` (stereo partly drawn) [(2,6-Dimethylcyclohexyl)carbonyl-Ile-Asp(pyrrolidino)-Asp-Leu-OH] (X4-ID(Pyrrolidide)DL-OH): 2100 nM.
Same read-out and setting: the value for `CC[C@H](C)[C@H](NC(=O)C1C(C)(C)C1(C)C)C(=O)N[C@@H](CC(=O)N1CCCC1)C(=O)N[C@@H](CC(=O)O)C(=O)N[C@@H](CC(C)C)C(=O)O` [(2,2,3,3-Tetramethylcyclopropyl)carbonyl-Ile-Asp(pyrrolidino)-Asp-Leu-OH] ({cPrCO(2,2,3,3-Me4)}-ID(Pyrrolidide)DL-OH) was 1400 nM.
With `CC[C@H](C)[C@H](NC(=O)C1C(C)CCC(C)C1C(=O)OCCc1ccccc1)C(=O)N[C@@H](CC(=O)N1CCCC1)C(=O)N[C@@H](CC(=O)O)C(=O)N[C@@H](CC(C)C)C(=O)O` (stereo partly drawn) [[(d,1)1α,2α,3β,6β-3,6-Dimethyl-2-(phenylethoxycarbonyl)cyclohexanecarbonyl]-Ile-Asp(pyrrolidino)-Asp-Leu-OH] (X1-ID(Pyrrolidide)DL-OH), the IC50 runs as follows: under setting [2], 500 nM; under setting [3], 2300 nM.
`CCC(CC)C(=O)N[C@H](C(=O)N[C@@H](CC(=O)N1CCCC1)C(=O)NC(C(=O)N[C@@H](CC(C)C)C(=O)O)C(C)(C)C(=O)O)C(C)(C)C` (stereo partly drawn) [(C2 H5)2 CHCO-Tbg-Asp(pyrrolidino)-Asp(diMe)-Leu-OH] ({Butanoyl(2-Et)}-[Tle]D(Pyrrolidide)[ξAsp(3,3-Me2)]L-OH): the IC50 is 140 nM (separated diastereoisomer, first value listed (footnote 5, order not stated)) and 9100 nM (separated diastereoisomer, second value listed (footnote 5, order not stated)).
In turn, `CC[C@H](C)[C@H](NC(=O)CCC(C)C)C(=O)N[C@@H](CC(=O)N1CCCC1)C(=O)N[C@@H](CC(=O)O)C(=O)N[C@@H](CC(C)C)C(=O)O` [(CH3)2 CHCH2 CH2 CO-Ile-Asp(pyrrolidino)-Asp-Leu-OH] ({Pentanoyl(4-Me)}-ID(Pyrrolidide)DL-OH) showed an IC50 under setting [1] of 3000 nM.
The same measure, in the same setting: next, `CCC(CC)C(=O)N[C@H](C(=O)N[C@@H](CC(=O)N1CCCC1)C(=O)N[C@@H](CC(=O)O)C(=O)NCCC(C)(C)C)C1CCCC1` [(C2 H5)2 CHCO-Cpg-Asp(pyrrolidino)-Asp-NHCH2 CH2 C(CH)3]: 35000 nM.
In the case of `CC[C@H](C)[C@H](NC(=O)C1CCCCC1C(=O)CCc1ccccc1)C(=O)N[C@@H](CC(=O)N(CC)CC)C(=O)N[C@@H](CC(=O)O)C(=O)N[C@@H](CC(C)C)C(=O)O` (stereo partly drawn) [[(d,1)-2-(3-Phenyl-1-oxopropyl)cyclohexanecarbonyl]-Ile-Asp(NEt2)-Asp-Leu-OH] (X3-ID(NEt2)DL-OH), the IC50 was 1400 nM under setting [2] and 34000 nM under setting [3].
As for `CCC(CC)C(=O)N[C@H](C(=O)N[C@@H](CC(=O)N1CCCC1)C(=O)N[C@@H](CC(=O)O)C(=O)NCCC(C)(C)C)c1ccccc1` [(C2 H5)2 CHCO-Phg-Asp(pyrrolidino)-Asp-NHCH2 CH2 C(CH3)3], under setting [1], half-maximal inhibition (IC50) required 40000 nM.
Same read-out and setting: the value for `CCC(CC)C(=O)N[C@@H](Cc1cccs1)C(=O)N[C@@H](CC(=O)N1CCCC1)C(=O)N[C@@H](CC(=O)O)C(=O)NCCC(C)(C)C` [(C2 H5)2 CHCO-NHCH(2-thienylmethyl)CO-Asp(pyrrolidino)-Asp-NHCH2 CH2 C(CH3)3] was 60000 nM.
The compound `CCC(CC)C(=O)N[C@H](C(=O)N[C@@H](CC(=O)N1CCCC1)C(=O)N[C@H](C(=O)N[C@@H](CC(C)C)C(=O)O)C(CC)(CC)C(=O)O)C(C)(C)C` [(C2 H5)2 CHCO-Tbg-Asp(pyrrolidino)-Asp(diEt)-Leu-OH] came in with an IC50 under setting [1] of 100 nM.
